# In patent US12576169B2, “Silicon-fluoride acceptor substituted radiopharmaceuticals and precursors thereof” (Technische Universität München, priority 2019, dated 2026):
# Read-outs that look alike come from different tables or passages of the source. *1 amine or outer side, *2 acyl side, *3 side chain or, on linkers, in order; H or OH if unused. Where a SMILES comes first, the peptide text is derived from it. Side-chain parts run from the residue outwards. [ ]: non-standard residue; d: D form. The star is where a group is joined. X1 = O=C(O)CC[C@H](NC(=O)N[C@@H](CCC(=O)N[C@H](CCCN*)C(=O)O)C(=O)O)C(=O)O; Benzoyl(4-SiFtBu2) = CC(C)(C)[Si](F)(c1ccc(C(=O)*)cc1)C(C)(C)C; Suc = O=C(CCC(=O)[*:2])[*:1]; dOrn = NCCC[C@@H](N)C(=O)O; dDap = NC[C@@H](N)C(=O)O
# Experiments:
# [1] = target: T1, human serum albumin (HSA) (Homo sapiens, UniProt P02768); experiment: Binding to HSA on a Chiralpak HSA column; type: in vitro ADME; details: calibration with nine reference substances
# T1 construct: purchased H13H-2433
# T1 sequence (P02768 25-609): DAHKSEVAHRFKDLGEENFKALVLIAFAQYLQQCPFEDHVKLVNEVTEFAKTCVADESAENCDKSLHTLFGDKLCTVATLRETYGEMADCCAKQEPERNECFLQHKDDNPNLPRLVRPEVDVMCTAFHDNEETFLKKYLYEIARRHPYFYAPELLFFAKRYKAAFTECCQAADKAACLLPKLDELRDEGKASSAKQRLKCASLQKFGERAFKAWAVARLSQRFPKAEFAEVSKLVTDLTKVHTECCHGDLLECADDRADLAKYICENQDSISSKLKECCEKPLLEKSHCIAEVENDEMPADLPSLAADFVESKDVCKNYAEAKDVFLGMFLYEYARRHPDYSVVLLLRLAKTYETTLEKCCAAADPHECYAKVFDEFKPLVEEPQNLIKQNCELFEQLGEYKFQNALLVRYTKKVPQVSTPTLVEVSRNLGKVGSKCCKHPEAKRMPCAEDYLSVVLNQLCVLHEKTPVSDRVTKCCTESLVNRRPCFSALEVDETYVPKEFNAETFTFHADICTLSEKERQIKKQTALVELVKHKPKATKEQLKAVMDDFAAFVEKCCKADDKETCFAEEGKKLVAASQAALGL
# Protocol: For the determination of human serum albumin (HSA) binding, a Chiralpak HSA column (50×3 mm, 5 μm, H13H-2433) was used at a constant flow rate of 0.5 mL/min. The mobile phase composed of a 50 mM NH4OAc solution in water with pH=7 (solvent C) and isopropanol (solvent D) was freshly prepared for each experiment and used only once. The reference substances (Table 1) as well as the analyzed SiFA-PSMA ligands were dissolved in a mixture of solvent C/solvent D (1:1, v/v, 0.5 mg/mL) and eluted from the HSA column (0-3 min: 100% C, 3-20 min: 20% D in C, λ=254 nm). The column was kept at rt and each run was stopped after detection of the signal to reduce the acquisition time. The nine reference substances display an HSA binding range of 13% to 99% and were injected consecutively in order to establish a sigmoidal calibration curve with the software OriginPro 2018b (FIG. 1).
# LNCaP cells = experiment: Internalization of 18F-labeled ligands into LNCaP cells; type: cell-based, human; details: internalized activity at 1 h in % of reference [125I]XII; c = 0.5 nM; LNCaP cells (125.000 cells/well); 37° C., DMEM/F-12 add. 5% BSA; corrected for non-specific binding (10 μm PMPA); mean ± SD (n = 3)
# Protocol: LNCaP cells were grown in DMEM/F-12 (add. 10% FCS, v/v) and maintained at 37° C. in a humidified 5% CO2 atmosphere. […] Subsequent to the removal of the culture medium, cells were washed with DMEM-F12 (add. 5% BSA, v/v, 500 μL) and left to equilibrate in DMEM-F12 (add. 5% BSA, v/v, 200 μL) at 37° C. for 15 min. Each well was treated with either DMEM-F12 (add. 5% BSA, v/v, 25 μL) or a 2-(phosphonomethyl)-pentandioic acid (PMPA) solution (100 μM in PBS, 25 μL) for blockade. Afterwards, the ^18F-labeled SiFA-PSMA ligand (5 nM in PBS, 25 μL) was added and the cells were incubated for 1 h at 37° C. The experiment was terminated by placing the 24-well plate on ice for 3 min and removal of the assay medium. Each well was rinsed with HBSS (4° C., 250 μL) and the fractions were combined with the previous assay medium, representing the amount of unbound radioligand. For removal of surface bound activity, LNCaP cells were incubated with PMPA solution (10 μM in PBS, 4° C., 250 μL) for 5 min and rinsed again with PBS (250 μL, 4° C.). The internalized activity was determined by incubation of LNCaP cells with 1 M aq. NaOH (250 μL) for at least 10 min and combination with the fraction of a subsequent wash step with 1 M aq. NaOH (200 μL). Each experiment (control and blockade) was performed in triplicate. […] All internalization studies were accompanied by reference studies using the reference compound XII (2 nM in HBSS add. 1% BSA, v/v), which were performed analogously. Data were corrected for non-specific internalization and normalized to the specific-internalization observed for the radioiodinated reference compound.
# [2] = n-Octanol-PBS partition coefficient (logD7.4); type: physicochemical; details: 18F-labeled ligand; n-octanol/PBS pH=7.4; mean ± SD (n = 5)
# Protocol: Approx. 0.5 MBq of the ^18F-labeled SiFA-PSMA ligand were added into a test tube containing n-octanol (500 μL) and PBS (500 μL, pH=7.4). After vigorously shaking the two-phase mixture for 3 min at rt, the test tube was centrifuged at 9.000 rpm for 5 min to achieve quantitative phase separation. Finally, 150 μL of each layer were pipetted off and measured for activity using a gamma counter. After repeating the experiment for at least five times, the n-octanol-PBS partition coefficient log D7.4 was calculated according to following formula.
# PSMA = PSMA (Homo sapiens, UniProt Q04609); experiment: IC50 determination: PSMA binding affinity, competition with [125I]XII on LNCaP cells
# Chain of PSMA (Q04609 whole entry): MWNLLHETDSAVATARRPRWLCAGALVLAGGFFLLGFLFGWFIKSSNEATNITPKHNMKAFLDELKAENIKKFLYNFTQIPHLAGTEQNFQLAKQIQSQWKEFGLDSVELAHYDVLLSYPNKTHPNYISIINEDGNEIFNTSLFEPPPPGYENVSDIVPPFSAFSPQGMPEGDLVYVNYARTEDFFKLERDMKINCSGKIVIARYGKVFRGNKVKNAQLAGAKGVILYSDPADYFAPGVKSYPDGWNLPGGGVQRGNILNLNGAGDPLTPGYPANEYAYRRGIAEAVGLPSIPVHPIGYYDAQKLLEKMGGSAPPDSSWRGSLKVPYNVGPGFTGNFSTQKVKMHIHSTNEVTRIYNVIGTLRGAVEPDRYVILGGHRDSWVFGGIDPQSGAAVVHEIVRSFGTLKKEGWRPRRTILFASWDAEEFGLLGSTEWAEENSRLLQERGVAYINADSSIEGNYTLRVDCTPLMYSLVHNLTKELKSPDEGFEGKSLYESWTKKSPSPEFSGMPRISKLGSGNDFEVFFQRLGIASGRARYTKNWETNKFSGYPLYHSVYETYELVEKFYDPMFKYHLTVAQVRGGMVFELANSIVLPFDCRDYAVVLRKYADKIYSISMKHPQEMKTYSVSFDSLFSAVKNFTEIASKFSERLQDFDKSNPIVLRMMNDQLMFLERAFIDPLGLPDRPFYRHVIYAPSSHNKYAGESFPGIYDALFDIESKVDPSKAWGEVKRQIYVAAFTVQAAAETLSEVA
# Protocol: LNCaP cells were grown in Dulbecco's Modified Eagle Medium/Nutrient Mixture F-12 (DMEM/F-12, add. 10% fetal calf serum (FCS), v/v) and maintained at 37° C. in a humidified 5% CO2 atmosphere. […] After removal of the culture medium, LNCaP cells were treated with HBSS (add. 1% BSA, v/v, 4° C., 500 μL) and subsequently left 15 min on ice for equilibration in HBSS (add. 1% BSA, v/v, 4° C., 200 μL). […] For the control series, HBSS (add. 1% BSA, v/v, 25 μL) was used instead of the SiFA-PSMA ligand solution. Each concentration and the control were prepared in triplicate. After 1 h incubation on ice, the assay medium was removed and cells were washed with HBSS (200 μL, 4° C.). […] NaOH (200 μL) for at least 10 min and the resulting cell lysate was removed. The wells were treated again with 1 M aq. […] The experiment was repeated for at least three times and the IC50 value calculated using the GraphPad PRISM 8.0.2 software (Graphpad Software Inc., La Jolla, United States).
# [3] = LNCaP cells (150.000 cells/well), reference [125I]XII c = 0.2 nM, 1 h, 4° C., HBSS add. 1% BSA, mean ± SD (n = 3)
SMILES,Binding to HSA [1],Internalization (LNCaP cells),logD7.4 [2],IC50 (PSMA; [3]),IC50 (PSMA)
CC(C)(C)[Si](F)(c1ccc(C(=O)NC[C@@H](NC(=O)[C@@H](CN)NC(=O)CC[C@H](NC(=O)N[C@@H](CCC(=O)O)C(=O)O)C(=O)O)C(=O)N[C@H](CCCCNC(=O)CCC(=O)NCCC[C@@H](NC(=O)CC[C@H](NC(=O)N[C@@H](CCC(=O)O)C(=O)O)C(=O)O)C(=O)O)C(=O)O)cc1)C(C)(C)C [SiFA-PSMA ligand 01 e],≥99.0%,125.13 ± 1.14%,−3.96 ± 0.07,9.2 ± 1.4 nM,–
C[C@H](O)[C@@H](NC(=O)CC[C@H](NC(=O)N[C@@H](CCC(=O)O)C(=O)O)C(=O)O)C(=O)N[C@H](CNC(=O)c1ccc([Si](F)(C(C)(C)C)C(C)(C)C)cc1)C(=O)N[C@H](CCCCNC(=O)CCC(=O)NCCC[C@@H](NC(=O)CC[C@H](NC(=O)N[C@@H](CCC(=O)O)C(=O)O)C(=O)O)C(=O)O)C(=O)O [SiFA-PSMA ligand 01 j],≥98.9%,120.83 ± 0.92%,−3.86 ± 0.07,9.2 ± 1.2 nM,–
CC(C)(C)[Si](F)(c1ccc(C(=O)NC[C@@H](NC(=O)[C@@H](CCCCN)NC(=O)CC[C@H](NC(=O)N[C@@H](CCC(=O)O)C(=O)O)C(=O)O)C(=O)N[C@H](CCCCNC(=O)CCC(=O)NCCC[C@@H](NC(=O)CC[C@H](NC(=O)N[C@@H](CCC(=O)O)C(=O)O)C(=O)O)C(=O)O)C(=O)O)cc1)C(C)(C)C [SiFA-PSMA ligand 01 g],98.9%,104.75 ± 4.37%,−3.71 ± 0.03,8.7 ± 0.7 nM,–
CC(C)(C)[Si](F)(c1ccc(C(=O)NC[C@@H](NC(=O)[C@@H](CCCN)NC(=O)[C@@H](CCC(=O)O)NC(=O)[C@H](N)CCC(=O)O)C(=O)N[C@H](CCCCNC(=O)CCC(=O)NCCC[C@@H](NC(=O)CC[C@H](NC(=O)N[C@@H](CCC(=O)O)C(=O)O)C(=O)O)C(=O)O)C(=O)O)cc1)C(C)(C)C [SiFA-PSMA ligand 03 e] (H-[dE][dE][dOrn][dDap](Benzoyl(4-SiFtBu2))[dK]([Suc-X1])-OH),97.5%,111.98 ± 3.90%,−3.40 ± 0.17,8.5 ± 1.2 nM,–
C[C@H](O)[C@@H](NC(=O)[C@@H](CCC(=O)O)NC(=O)[C@H](N)CCC(=O)O)C(=O)N[C@H](CNC(=O)c1ccc([Si](F)(C(C)(C)C)C(C)(C)C)cc1)C(=O)N[C@H](CCCCNC(=O)CCC(=O)NCCC[C@@H](NC(=O)CC[C@H](NC(=O)N[C@@H](CCC(=O)O)C(=O)O)C(=O)O)C(=O)O)C(=O)O [SiFA-PSMA ligand 03 h] (H-[dE][dE][dT][dDap](Benzoyl(4-SiFtBu2))[dK]([Suc-X1])-OH),97.8%,107.42 ± 3.66%,−3.66 ± 0.03,10.7 ± 2.1 nM,–
CC(C)(C)[Si](F)(c1ccc(C(=O)NC[C@@H](NC(=O)CNC(=O)CC[C@H](NC(=O)N[C@@H](CCC(=O)O)C(=O)O)C(=O)O)C(=O)N[C@H](CCCCNC(=O)CCC(=O)NCCC[C@@H](NC(=O)CC[C@H](NC(=O)N[C@@H](CCC(=O)O)C(=O)O)C(=O)O)C(=O)O)C(=O)O)cc1)C(C)(C)C [SiFA-PSMA ligand 01 i],98.9%,160.83 ± 2.72%,−3.96 ± 0.04,8.8 ± 1.7 nM,–
CC(C)(C)[Si](F)(c1ccc(C(=O)NC[C@@H](NC(=O)[C@@H](CCC(=O)O)NC(=O)CC[C@H](NC(=O)N[C@@H](CCC(=O)O)C(=O)O)C(=O)O)C(=O)N[C@H](CCCCNC(=O)CCC(=O)NCCC[C@@H](NC(=O)CC[C@H](NC(=O)N[C@@H](CCC(=O)O)C(=O)O)C(=O)O)C(=O)O)C(=O)O)cc1)C(C)(C)C [SiFA-PSMA ligand 01 b],≥99.0%,126.43 ± 4.23%,−4.04 ± 0.08,11.8 ± 2.2 nM,–
CC(C)(C)[Si](F)(c1ccc(C(=O)NC[C@@H](NC(=O)[C@@H](Cc2ccccc2)NC(=O)CC[C@H](NC(=O)N[C@@H](CCC(=O)O)C(=O)O)C(=O)O)C(=O)N[C@H](CCCCNC(=O)CCC(=O)NCCC[C@@H](NC(=O)CC[C@H](NC(=O)N[C@@H](CCC(=O)O)C(=O)O)C(=O)O)C(=O)O)C(=O)O)cc1)C(C)(C)C [SiFA-PSMA ligand 01 k],≥98.9%,61.61 ± 1.33%,−2.99 ± 0.02,29.4 ± 0.6 nM,–
CC(C)(C)[Si](F)(c1ccc(C(=O)NC[C@@H](NC(=O)[C@@H](CC(=O)O)NC(=O)CC[C@H](NC(=O)N[C@@H](CCC(=O)O)C(=O)O)C(=O)O)C(=O)N[C@H](CCCCNC(=O)CCC(=O)NCCC[C@@H](NC(=O)CC[C@H](NC(=O)N[C@@H](CCC(=O)O)C(=O)O)C(=O)O)C(=O)O)C(=O)O)cc1)C(C)(C)C [SiFA-PSMA ligand 01 a],≥99.0%,162.54 ± 7.08%,−4.02 ± 0.04,7.8 ± 0.8 nM,–
CC(C)(C)[Si](F)(c1ccc(C(=O)NC[C@@H](NC(=O)[C@H](N)CNC(=O)[C@@H](CCC(=O)O)NC(=O)[C@H](N)CCC(=O)O)C(=O)N[C@H](CCCCNC(=O)CCC(=O)NCCC[C@@H](NC(=O)CC[C@H](NC(=O)N[C@@H](CCC(=O)O)C(=O)O)C(=O)O)C(=O)O)C(=O)O)cc1)C(C)(C)C [SiFA-PSMA ligand 04],97.9%,124.49 ± 2.61%,−3.33 ± 0.11,–,12.2 ± 1.9 nM
CC(C)(C)[Si](F)(c1ccc(C(=O)NC[C@@H](NC(=O)[C@@H](CCC(=O)O)NC(=O)[C@@H](CCC(=O)O)NC(=O)[C@H](N)CCC(=O)O)C(=O)N[C@H](CCCCNC(=O)CCC(=O)NCCC[C@@H](NC(=O)CC[C@H](NC(=O)N[C@@H](CCC(=O)O)C(=O)O)C(=O)O)C(=O)O)C(=O)O)cc1)C(C)(C)C [SiFA-PSMA ligand 03 b] (H-[dE][dE][dE][dDap](Benzoyl(4-SiFtBu2))[dK]([Suc-X1])-OH),98.9%,135.78 ± 5.50%,−3.85 ± 0.04,8.8 ± 1 nM,–
CC(C)(C)[Si](F)(c1ccc(C(=O)NC[C@@H](NC(=O)[C@@H](CC(=O)O)NC(=O)[C@@H](CCC(=O)O)NC(=O)[C@H](N)CCC(=O)O)C(=O)N[C@H](CCCCNC(=O)CCC(=O)NCCC[C@@H](NC(=O)CC[C@H](NC(=O)N[C@@H](CCC(=O)O)C(=O)O)C(=O)O)C(=O)O)C(=O)O)cc1)C(C)(C)C [SiFA-PSMA ligand 03 a] (H-[dE][dE][dD][dDap](Benzoyl(4-SiFtBu2))[dK]([Suc-X1])-OH),98.8%,135.74 ± 6.70%,−3.80 ± 0.06,9.3 ± 1.7 nM,–
CC(C)(C)[Si](F)(c1ccc(C(=O)NC[C@@H](NC(=O)CNC(=O)[C@@H](CCC(=O)O)NC(=O)[C@H](N)CCC(=O)O)C(=O)N[C@H](CCCCNC(=O)CCC(=O)NCCC[C@@H](NC(=O)CC[C@H](NC(=O)N[C@@H](CCC(=O)O)C(=O)O)C(=O)O)C(=O)O)C(=O)O)cc1)C(C)(C)C [SiFA-PSMA ligand 03 g],98.4%,121.44 ± 3.72%,−3.56 ± 0.04,11.9 ± 2 nM,–
CC(C)(C)[Si](F)(c1ccc(C(=O)NC[C@@H](NC(=O)[C@H](CCC(=O)O)NC(=O)CC[C@H](NC(=O)N[C@@H](CCC(=O)O)C(=O)O)C(=O)O)C(=O)N[C@H](CCCCNC(=O)CCC(=O)NCCC[C@@H](NC(=O)CC[C@H](NC(=O)N[C@@H](CCC(=O)O)C(=O)O)C(=O)O)C(=O)O)C(=O)O)cc1)C(C)(C)C [SiFA-PSMA ligand 01 c],≥98.9%,175.08 ± 5.93%,−3.72 ± 0.02,17 ± 0.9 nM,–
